# Experimental data published in paper PMC6733655 (Biochemical pharmacology, 2019).
# “And” between values parts separate entries of the source, which are not always exact repeats. Equal entries are not always repeated. “Also recorded” adds a separate entry of the source. Where two headings read alike, the source gives them in different places.
# Key:
# [1] = cited from earlier work
# [2] = tested on: nucleoside transporters (CNT1, CNT3, ENT1, ENT2); assay: Inhibition; assay type: in vivo, C57BL/6 mice
# [3] = In situ single-pass jejunal perfusion of gemcitabine; assay type: in vivo, C57BL/6 mice; settings: for Papp at 90 min, 100 μM: pH 6, effective permeability (Peff)
# [4] = as above; assay type: in vivo, BALB/c mice; settings: female, BALB/c, mouse, other: in situ single-pass jejunal perfusion, pH 6
# [5] = mice, cited from earlier work
# [6] = 100 μM gemcitabine, female BALB/c mice, corrected for cytosine; cited from earlier work
# hCNT1 = settings: read-out: Km for gemcitabine transport; Xenopus laevis oocytes; cited from earlier work
# hCNT3 = settings: read-out: Km for gemcitabine transport; Xenopus laevis oocytes; cited from earlier work
# hENT2 = settings: read-out: Km for gemcitabine transport; Xenopus laevis oocytes; cited from earlier work
# hENT1 = settings: read-out: Km for gemcitabine transport; Xenopus laevis oocytes; cited from earlier work
# ENT1 and ENT2 = assay type: in vivo, C57BL/6 mice; settings: 5 μM [14C]-gemcitabine, 90 min perfusion, 2 mM dilazep
# [7] = 5 μM gemcitabine co-perfused with 2 mM inhibitor, sodium-containing buffer
# [8] = from intrinsic clearance Vmax/Km, linear conditions
# [9] = jejunal flux, 0.5 μM to 2 mM, fit to two Michaelis-Menten terms
compound,measurement,setting,value
glycylsarcosine,in situ jejunal permeability (Peff),[1]; mouse,0.00017 cm/s
CC(C)[C@H](N)C(=O)OCCOCn1cnc2c(=O)[nH]c(N)nc21 [valacyclovir],in situ jejunal permeability (Peff),[1],9e-05 cm/s
Cc1cn([C@H]2C[C@H](O)[C@@H](CO)O2)c(=O)[nH]c1=O [thymidine],reduction of jejunal permeability of gemcitabine,[2]; [7],about 95%
same,residual permeability of gemcitabine,[2]; [7],4.6%
NCC(=O)CCC(=O)O [5-aminolevulinic acid],in situ jejunal permeability (Peff),[1],0.00019 cm/s
CC1=C(C(=O)O)N2C(=O)[C@@H](NC(=O)[C@H](N)c3ccc(O)cc3)[C@H]2SC1 [cefadroxil],in situ jejunal permeability (Peff),[1],0.6-0.8 × 10^−4 cm/s
"Nc1cc[nH]c(=O)n1 [Cytosine, cytosine]",cytosine in outlet samples,"[3]; perfusion of 100 μM gemcitabine, C57BL/6 and BALB/c mice",absent
"Nc1ccn([C@@H]2O[C@H](CO)[C@@H](O)C2(F)F)c(=O)n1 [gemcitabine, 2′,2′-difluoro-2′-deoxycytidine]",effective permeability (Peff),"[3]; 100 μM gemcitabine, jejunum, C57BL/6 mice, analyzed by UPLC",110 ×10⁻⁶ cm/s
same,"Papp at 90 min, 100 μM","[3]; both, C57BL/6, mouse, other: in situ single-pass jejunal perfusion, 100 μM [14C]-gemcitabine, jejunum, C57BL/6 mice, analyzed by radioactivity",105 ×10⁻⁶ cm/s
same,"Papp at 90 min, 100 μM","[3]; both, C57BL/6, mouse, other: in situ single-pass jejunal perfusion, 100 μM gemcitabine, jejunum, C57BL/6 mice, analyzed by UPLC",114 ×10⁻⁶ cm/s
same,"Papp at 90 min, 5 μM","[3]; both, C57BL/6, mouse, other: in situ single-pass jejunal perfusion, pH 6, in situ jejunal permeability, 5 μM gemcitabine, C57BL/6 mice",150 to 190 ×10⁻⁶ cm/s
same,predicted contribution of the high-affinity transport system to uptake,[3]; [8],72%
same,predicted contribution of the low-affinity transport system to uptake,[3]; [8],28%
same,"Vmax,1 (high-affinity, low-capacity transport system)",[3]; [9],3.6 pmol/cm^2/s and 3.6 ± 2.1 pmol/cm^2/s
same,"Vmax,2 (low-affinity, high-capacity transport system)",[3]; [9],35.9 pmol/cm^2/s and 35.9 ± 5.5 pmol/cm^2/s
same,Km,"[3]; read-out: Km,1 (high-affinity, low-capacity transport system), jejunal flux, 0.5 μM to 2 mM, fit to two Michaelis-Menten terms",27.4 ± 13.9 µM
same,Km,"[3]; read-out: Km,2 (low-affinity, high-capacity transport system), jejunal flux, 0.5 μM to 2 mM, fit to two Michaelis-Menten terms",700 ± 330 µM
same,"Papp at 90 min, 100 μM",[4],109 ± 13 ×10⁻⁶ cm/s
same,residual permeability of gemcitabine,[2]; 5 μM gemcitabine in sodium-free buffer (inhibits CNT1 and CNT3),31.7%
same,jejunal uptake mediated by nucleoside transporters,[2]; C57BL/6 mice,~ 95%
same,oral bioavailability,[5]; gemcitabine alone,10%
same,oral bioavailability,[5]; with tetrahydrouridine (cytidine deaminase inhibitor),40%
same,Peff,[6],2 ×10⁻⁶ cm/s
same,Km,hCNT1,~25 µM
same,Km,hCNT3,~60 µM
same,Km,hENT2,~750 µM
same,Km,hENT1,~160 µM
COc1cc(C(=O)OCCCN2CCCN(CCCOC(=O)c3cc(OC)c(OC)c(OC)c3)CC2)cc(OC)c1OC [dilazep],reduction of jejunal permeability of gemcitabine,[2]; [7],about 50%
same,residual permeability of gemcitabine,[2]; [7],50.2%
same,effect on total gemcitabine radioactivity in intestinal (jejunal) tissue,ENT1 and ENT2,not altered; also recorded: no change
same,"total gemcitabine radioactivity in portal venous plasma, % control",ENT1 and ENT2,32.5%
